Values of other authors in patent US11439618B2, “Compositions and methods for lowering triglycerides” (Amarin Pharmaceuticals Ireland Limited, priority 2009, dated 2022).

Settings: previous data; standard deviation of 15%; cited from earlier work

Structure (SMILES): CC/C=C\C/C=C\C/C=C\C/C=C\C/C=C\CCCC(=O)OCC [Ethyl-EPA, all-cis eicosa-5,8,11,14,17-pentaenoic acid ethyl ester]
- Difference in percent change from baseline in fasting LDL-C between study drug and placebo: 2.2%
